Results taken from patent US10849881B2, “Octahydro-cyclobuta[1,2-c;3,4-c′]dipyrrol-2-yl” (Hoffmann-La Roche Inc., priority 2013, dated 2020).

Target: ATX (human His-tagged) (Homo sapiens (Human), UniProt Q13822)
Test: Human ATX enzyme inhibition assay (fluorescence quenching, MR121 substrate)
Type: biochemical
Conditions: 30 nM ATX, 1 μM MR121 substrate, 30° C., pH 8.0
How it was run: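 Fluorescence quenching assay with MR121/tryptophan-labelled substrate analogue in Tris-HCl buffer (140 mM NaCl, CaCl2, MgCl2, 0.01% Triton X-100, pH 8.0). Serially diluted compounds were preincubated 15 min at 30 °C with 30 nM ATX (final), then 1 µM substrate (final) added and incubated 15 min at 30 °C.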

IC50 [nM]	Compound
16	O=C(c1ccc2[nH]nnc2c1)N1C[C@@H]2[C@H](C1)[C@H]1CN(C(=O)c3cc4cc(OC(F)(F)F)ccc4[nH]3)C[C@@H]21 [Example 1.010, [(3aR,3bS,6aR,6bS)-5-(1H-benzotriazole-5-carbonyl)-octahydro-cyclobuta[1,2-c;3,4-c′]dipyrrol-2-yl]-(5-trifluoromethoxy-1H-indol-2-yl)-methanone]
70	O=C(c1ccc2[nH]nnc2c1)N1C[C@@H]2[C@H](C1)[C@H]1CN(C(=O)N3CCc4cc(C(F)(F)F)ccc4C3)C[C@@H]21 [Example 4, [(3aR,3bS,6aR,6bS)-5-(1H-Benzotriazole-5-carbonyl)-octahydro-cyclobuta[1,2-c;3,4-c′]dipyrrol-2-yl]-(6-trifluoromethyl-3,4-dihydro-1H-isoquinolin-2-yl)-methanone]
1470	O=C(c1ccc2[nH]nnc2c1)N1C[C@@H]2[C@H](C1)[C@H]1CN(C(=O)c3cc4ccccc4[nH]3)C[C@@H]21 [Example 1.023, [(3aR,3bS,6aR,6bS)-5-(1H-benzotriazole-5-carbonyl)-octahydro-cyclobuta[1,2-c;3,4-c′]dipyrrol-2-yl]-(1H-indol-2-yl)-methanone]
7	CCOc1cc(C(=O)N2C[C@@H]3[C@H](C2)[C@H]2CN(C(=O)c4ccc5[nH]nnc5c4)C[C@@H]32)cc2ccccc12 [Example 1.051, [(3aS,3bS,6aR,6bR)-5-(1H-benzotriazole-5-carbonyl)-octahydro-cyclobuta[1,2-c;3,4-c′]dipyrrol-2-yl]-(4-ethoxy-naphthalen-2-yl)-methanone]
1	O=C(c1cc2ccccc2c(OCC2CC2)n1)N1C[C@@H]2[C@H](C1)[C@H]1CN(C(=O)[C@@H]3CCc4[nH]nnc4C3)C[C@@H]21 [Example 1.064, (1-cyclopropylmethoxy-isoquinolin-3-yl)-[(3aR,3bS,6aR,6bS)-5-((R)-4,5,6,7-tetrahydro-1H-benzotriazole-5-carbonyl)-octahydro-cyclobuta[1,2-c;3,4-c′]dipyrrol-2-yl]-methanone]
3.5	CC(C)Oc1cc(C(=O)N2C[C@@H]3[C@H](C2)[C@H]2CN(C(=O)c4ccc5[nH]nnc5c4)C[C@@H]32)cc2c1CCCC2 [Example 1.078, [(3aS,3bS,6aR,6bR)-5-(1H-benzotriazole-5-carbonyl)-octahydro-cyclobuta[1,2-c;3,4-c′]dipyrrol-2-yl]-(4-isopropoxy-5,6,7,8-tetrahydro-naphthalen-2-yl)-methanone]
28	COc1nc(C(=O)N2C[C@@H]3[C@H]4CN(C(=O)c5ccc6[nH]nnc6c5)C[C@H]4[C@@H]3C2)cc2ccccc12 [Example 1.046, [(3aR,3bS,6aR,6bS)-5-(1H-benzotriazole-5-carbonyl)-octahydro-cyclobuta[1,2-c;3,4-c′]dipyrrol-2-yl]-(1-methoxy-isoquinolin-3-yl)-methanone]
45	Cc1ccc2ccc(C(=O)N3C[C@@H]4[C@H](C3)[C@H]3CN(C(=O)c5ccc6[nH]nnc6c5)C[C@@H]43)cc2c1 [Example 1.014, [(3aS,3bS,6aR,6bR)-5-(1H-benzotriazole-5-carbonyl)-octahydro-cyclobuta[1,2-c;3,4-c′]dipyrrol-2-yl]-(7-methyl-naphthalen-2-yl)-methanone]
4	COCCOc1cc(C(=O)N2C[C@@H]3[C@H](C2)[C@H]2CN(C(=O)c4ccc5[nH]nnc5c4)C[C@@H]32)cc2ccccc12 [Example 1.049, [(3aS,3bS,6aR,6bR)-5-(1H-benzotriazole-5-carbonyl)-octahydro-cyclobuta[1,2-c;3,4-c′]dipyrrol-2-yl]-[4-(2-methoxy-ethoxy)-naphthalen-2-yl]-methanone]
15.3	O=C(c1ccc2[nH]nnc2c1)N1C[C@@H]2[C@H](C1)[C@H]1CN(C(=O)c3ccc(C4CC4)c(OCC4CC4)n3)C[C@@H]21 [Example 1.087, (1H-benzotriazol-5-yl)-[(3aS,3bR,6aS,6bR)-5-(5-cyclopropyl-6-cyclopropylmethoxy-pyridine-2-carbonyl)-octahydro-cyclobuta[1,2-c;3,4-c′]dipyrrol-2-yl]-methanone]
8	O=C(/C=C/c1ccc(OC(F)(F)F)cc1)N1C[C@@H]2[C@H](C1)[C@H]1CN(C(=O)[C@@H]3CCc4[nH]nnc4C3)C[C@@H]21 [Example 1.006, (E)-1-[(3aS,3bS,6aR,6bR)-5-((R)-4,5,6,7-tetrahydro-1H-benzotriazole-5-carbonyl)-octahydro-cyclobuta[1,2-c;3,4-c′]dipyrrol-2-yl]-3-(4-trifluoromethoxy-phenyl)-propenone]
3.5	CC(C)Oc1cc(C(=O)N2C[C@@H]3[C@H](C2)[C@H]2CN(C(=O)c4ccc5[nH]nnc5c4)C[C@@H]32)cc2ccccc12 [Example 1.052, [(3aS,3bS,6aR,6bR)-5-(1H-benzotriazole-5-carbonyl)-octahydro-cyclobuta[1,2-c;3,4-c′]dipyrrol-2-yl]-(4-isopropoxy-naphthalen-2-yl)-methanone]
7.5	CCOc1c(C(=O)N2C[C@@H]3[C@H]4CN(C(=O)c5ccc6[nH]nnc6c5)C[C@H]4[C@@H]3C2)ccc2c1ccn2CC [Example 1.081, [(3aS,3bS,6aR,6bR)-5-(1H-benzotriazole-5-carbonyl)-octahydro-cyclobuta[1,2-c;3,4-c′]dipyrrol-2-yl]-(4-ethoxy-1-ethyl-1H-indol-5-yl)-methanone]
120	COc1ccc2cc(C(=O)N3C[C@@H]4[C@H](C3)[C@H]3CN(C(=O)c5ccc6[nH]nnc6c5)C[C@@H]43)ccc2c1 [Example 1.005, [(3aS,3bS,6aR,6bR)-5-(1H-benzotriazole-5-carbonyl)-octahydro-cyclobuta[1,2-c;3,4-c′]dipyrrol-2-yl]-(6-methoxy-naphthalen-2-yl)-methanone]
8.5	O=C(c1cc(OCC2CC2)c2ccccc2c1)N1C[C@@H]2[C@H](C1)[C@H]1CN(C(=O)c3ccc4[nH]nnc4c3)C[C@@H]21 [Example 1.025, [(3aS,3bS,6aR,6bR)-5-(1H-benzotriazole-5-carbonyl)-octahydro-cyclobuta[1,2-c;3,4-c′]dipyrrol-2-yl]-(4-cyclopropylmethoxy-naphthalen-2-yl)-methanone]

Compound	IC50 [nM]
(1H-benzotriazol-yl)-{(3aS,3bS,6aR,6bR)-5-[5-bromo-2-methyl-6-(2,2,2-trifluoro-ethoxy)-pyridine-3-carbonyl]-octahydro-cyclobuta[1,2-c;3,4-c′]dipyrrol-2-yl}-methanone [Example 1.103]	27
Cc1ccc(C(=O)N2C[C@@H]3[C@H](C2)[C@H]2CN(C(=O)c4ccc(OCC5CC5)nn4)C[C@@H]32)cc1C [Example 1.102, [(3aS,3bR,6aS,6bR)-5-(6-cyclopropylmethoxy-pyridazine-3-carbonyl)-octahydro-cyclobuta[1,2-c;3,4-c′]dipyrrol-2-yl]-(3,4-dimethyl-phenyl)-methanone]	992
O=C(c1cnc(OCC(F)(F)F)c(C2CCOCC2)c1)N1C[C@@H]2[C@H](C1)[C@H]1CN(C(=O)c3ccc4[nH]nnc4c3)C[C@@H]21 [Example 1.106, (1H-benzotriazol-5-yl)-{(3aS,3bS,6aR,6bR)-5-[5-(tetrahydro-pyran-4-yl)-6-(2,2,2-trifluoro-ethoxy)-pyridine-3-carbonyl]-octahydro-cyclobuta[1,2-c;3,4-c′]dipyrrol-2-yl}-methanone]	169
